Data published in patent publication US20080125377A1, “DELIVERY SYSTEM FOR ANTIANGIOGENIC AND ANTIINFLAMMATORY PHARMACEUTICALS AND METHOD OF USE” (priority 2006, published 2008).
Entries after “also recorded” stand apart in the source; their conditions may differ.

How the values were obtained:
[1] = test system: human retinal endothelial cells; test: Vascular endothelial cell proliferation (cell viability assay kit), human retinal endothelial cells; assay type: cell-based; conditions: dose-dependent
Method: (§1) Objective: The present study was conducted to evaluate the ability of a novel tyrosine kinase inhibitor, BOL-303213-X, to prevent vascular endothelial cell proliferation in vitro using human retinal, choroidal, and dermal microvascular endothelial cells, as well as bovine retinal endothelial cells. Inhibition of outgrowths in a human choroid explant assay was also used to evaluate BOL-303213-X activity in a more complex multi-cellular angiogenesis ex vivo model. Furthermore, caspase-3/7 and lactate dehydrogenase (LDH) activities were also determined following treatment of human retinal and choroidal endothelial cells with BOL-303213-X as a preliminary measure of cytotoxicity. Methods: Human retinal and choroidal vascular endothelial cells were isolated and cultured from human donor eyes. Human dermal microvascular endothelial cells and bovine retinal endothelial cells were purchased from commercial sources. Vascular endothelial cell proliferation was measured by comparing the number of viable cells using a commercial cell viability assay kit. Inhibition of choroid outgrowths was evaluated in a human explant assay. Caspase-3/7 and LDH activities were utilized to assess cytotoxicity.

[2] = test system: human dermal microvascular endothelial cells; test: Vascular endothelial cell proliferation (cell viability assay kit), human dermal microvascular endothelial cells; assay type: cell-based; conditions: dose-dependent
Method: as §1

[3] = test system: laser-induced choroidal neovascularization; test: Laser-induced choroidal neovascularization in cynomolgus monkeys (fluorescein angiography grading); assay type: in vivo, cynomolgus monkeys (Macaca fascicularis)
Source text: BOL-303213-X/HPMC Suspension: Evaluation of Efficacy in Monkeys Using a Laser-Induced Choroidal Neovasuclarization Model.
Purpose: This study was done to qualitatively evaluate the potential inhibitory effect of BOL-303213-X on laser-induced choroidal neovascularization in cynomolgus monkeys when administered biweekly by intravitreal injection beginning at the time of laser treatment.
Methods: Eight cynomolgus monkeys (Macaca fascicularis) were used in this study. The animals were assigned to the study using a computerized procedure designed to achieve body weight balance with respect to groups. The animals were anesthetized with ketamine and xylazine and the eyes dilated with a mydriatic. The macula of both eyes of each animal received laser photocoagulation treatment using a 532 nm diode green laser and slit lamp delivery system and a plano fundus contact lens. This is a standard method for inducing choroidal neovascularization. Nine areas were symmetrically placed in the macula of each eye. The laser parameters included a 75 micron spot size, 0.1 second duration at power settings ranging from 400 to 750 mW. […] Fuorescein angiograms were evaluated according to the following grading system for evidence of excessive permeability (i.e. fluorescein leakage). […]

[4] = test system: human choroidal endothelial cells; test: Cytotoxicity (caspase-3/7 and LDH activities), confluent human choroidal endothelial cells; assay type: cell-based; conditions: range of concentrations used for efficacy testing
Method: as §1

[5] = test system: human retinal endothelial cells; test: Cytotoxicity (caspase-3/7 and LDH activities), confluent human retinal endothelial cells; assay type: cell-based; conditions: range of concentrations used for efficacy testing
Method: as §1

[6] = Ocular tolerability following a single intravitreal administration in pigmented rabbits; assay type: in vivo
Method: BOL-303213-X In HPMC Suspension. Evaluation of Ocular Tolerability Following a Single Intravitreal Administration in Pigmented Rabbits.
Purpose: The aims of this study were to determine the ocular tolerability and pharmacokinetics of BOL-303213-X in Hydroxy Propyl Methyl Cellulose (HPMC) suspension after a single intravitreal injection at 4 doses: 10, 15, 20 and 30 μg.
Methods: One hundred and two rabbits were allocated into four-dose groups (group 1: 10 μg, group 2: 15 μg, group 3: 20 μg and group 4: 30 μg of BOL-303213-X in HPMC suspension) and one control group (HPMC). Each group was divided in four time-points (15 min, Days 1, 3 and 5) except the control group (one time-point: Day 5). Each animal received an intravitreal injection of test article (50 μl) in the right eye. Tolerability was evaluated by slit lamp examination, anterior chamber inflammation (flare) by laser flare measurements (LFM), intraocular pressure measurements and integrity of the blood retinal barrier (BRB) by vitreous fluorophotometry. These examinations were performed before injection and, on Days 1, 3 and 5. Results: The general behavior of animals was not altered by the treatment. […] No relevant complications were found during the clinical follow-up. […] The blood-retinal barrier was not affected by the different injections. […] There was no difference in IOP between the BOL-303213-X injected and control eyes at any time points.

[7] = test system: rhVEGF165-induced blood-retinal barrier breakdown; test: Blood-retinal barrier breakdown induced by rhVEGF165 in pigmented rabbits (vitreous fluorophotometry); assay type: in vivo
Method: (§2) To expand the efficacy observation of BOL-303213-X in non-ocular system, an ocular efficacy study was conducted in rabbits that included ocular observations to evaluate tolerance of intravitreal administration of BOL-303213-X in hydroxypropyl methylcellulose (HPMC). A rabbit model of blood-retinal barrier (BRB) breakdown induced by intravitreal administration of recombinant human vascular endothelial growth factor (rhVEGF) was used. This model mimics pathologic situations such as macular edema, in which VEGF contributes to increased retinal vascular permeability resulting in edema. In this study 30 μg BOL-303213-X in 50 μl of HPMC was given 3 or 5 days before the VEGF challenge with the evaluation of the BRB integrity also at 2 days after the VEGF challenge.
BOL-303213-X/HPMC Suspension: Evaluation of Efficacy in Pigmented Rabbits Using a Model of Blood-Retinal Barrier Breakdown Induced by VEGF.
Purpose: The aim of this study was to evaluate the efficacy of BOL-303213-X (30 μg) in hydroxypropyl methylcellulose (HPMC) suspension in pigmented rabbits using a model of blood-retinal barrier breakdown induced by rhVEGF 165.
(§3) Methods: Eighty four (84) pigmented rabbits were allocated into 8 groups: three groups were given an intravitreal injection (50 μl) of BOL-303213-X (30 μg) in HPMC, three groups were given an intravitreal injection of HPMC vehicle and two groups were given no treatment. The rhVEGF 165 challenge was performed three days after the treatment injection to three groups (BOL-303213-X-treated, vehicle-treated, and untreated). The rhVEGF 165 challenge was also performed at five days after the treatment injection to four groups (BOL-303213-X-treated, vehicle-treated (n=2), and untreated). One group served as control for the tolerability of BOL-303213-X injection. Breakdown of the blood-retinal barrier was evaluated 24 h (one vehicle-treated group) and 48 h (the other six groups) after rhVEGF 165 challenge by fluorescein leakage from retinal vasculature into the vitreous using non-invasive scanning ocular fluorophotometry. Assessment of tolerability was evaluated by slit-lamp examination, laser flare measurements (LFM) of anterior chamber using a laser flare meter, intraocular pressure (IOP) measurements using a pneumotonometer and vitreo-retinal fluorophotometry. These examinations were performed before injection, before the rhVEGF165 challenge and the day of euthanasia. Results: The general behavior of animals was not altered by the treatment. […] No relevant complications were found during the clinical follow-up.

[8] = test system: human choroidal endothelial cells; test: Vascular endothelial cell proliferation (cell viability assay kit), human choroidal endothelial cells; assay type: cell-based; conditions: dose-dependent
Method: as §1

[9] = test system: Human retinal endothelial cells (HREC); test: Network formation assay in Matrigel, human retinal endothelial cells (HREC); assay type: cell-based; conditions: 1% FBS-RF6A medium, 20 ng/ml rhVEGF, 24 hours, approximate, read-out: ED50, inhibition of network formation of human retinal endothelial cells in Matrigel
Method: Evaluation of Efficacy of BOL-303213-X In Human Retinal Endothelial Cells (HREC) Using the Network Formation Assay in Matrigel.
Objective: This study was conducted to evaluate the ability of a novel tyrosine kinase inhibitor, BOL-303213-X, to prevent vascular endothelial cell network formation in an in vitro angiogenesis model—network formation assay in Matrigel.
Methods: Human retinal vascular endothelial cells were isolated and cultured from human donor eyes and characterized by Dio-Ac-LDL uptake. Cell network formation was evaluated after these cells were cultured in Matrigel in 1% FBS-RF6A medium with 20 ng/ml rhVEGF and various doses of BOL-303213-X (30, 60, 200, 600 and 1200 nM) for 24 hours. Cell isolates and cultures from three separated donors were used. The total cell network areas were computed by an image analysis software.

[10] = Tolerability of intravitreal BOL-303213-X in HPMC in cats; assay type: in vivo; conditions: intravitreal 10 μg in HPMC, statement also covers four pharmacokinetic studies, visible aggregates in vitreous in certain studies
[11] = test system: bovine retinal endothelial cells; test: Vascular endothelial cell proliferation (cell viability assay kit), bovine retinal endothelial cells; assay type: cell-based; conditions: dose-dependent
Method: as §1

[12] = Ocular tolerability in the rabbit VEGF efficacy study (slit-lamp, laser flare, IOP); assay type: in vivo
Method: as §2, §3

[13] = test system: human choroid explant outgrowths; test: Human choroid explant outgrowth assay (ex vivo); assay type: cell-based; conditions: human choroidal outgrowth assay
Method: as §1

[14] = 10-30 μg in HPMC, single intravitreal injection

CC(C)Cn1c2ccc(Nc3ncccn3)cc2c2c3c(c4c(c21)CCc1nn(C)cc1-4)C(=O)NC3 [BOL-303213-X]
Inhibition of proliferation [1]: inhibited proliferation | Inhibition of proliferation [2]: inhibited proliferation | Percent of grade IV lesions vs HPMC-vehicle contralateral eye ([3]; 45 μg in HPMC intravitreal after laser and two weeks post-laser, 2, 3 and 4 weeks post-laser): consistently lower | Inhibition of choroidal neovascularization (in words) ([3]; 45 μg in HPMC suspension, injected after laser challenge): effective at inhibiting choroidal neovascularization | Caspase-3/7 activity [4]: no significant increase | LDH activity [4]: no significant increase | Caspase-3/7 activity [5]: no significant increase | LDH activity [5]: no significant increase | Toxicity by clinical examination, laser flare and IOP measurements ([6]; 10, 15, 20, 30 μg in HPMC, single intravitreal injection 50 μl): no evidence of toxicity | Clinical observation in the vitreous following the intravitreal injection ([6]; 10-30 μg in HPMC suspension): small aggregate of drug precipitates | Blood-retinal barrier integrity (vitreous fluorophotometry) [6, 14]: not affected | Body weights of the animals [6, 14]: within a normal range | General behavior of animals [6, 14]: not altered | Anterior chamber inflammation ([6]; 1 day after the injection, not dose-dependent): transient anterior inflammation | Animals with some inflammatory cells in the vitreous cavity at fundus examination ([6]; Day 5, at least 1 animal of each group (control group included)): 9 rabbits out of 30 | Overall safety conclusion ([6]; HPMC suspension at 10, 15, 20 and 30 μg-doses, normal pigmented rabbit): appeared to be safe | IOP, injected vs control eyes ([6]; any time points): no difference | Effect on VEGF-induced retinal vascular permeability / blood-retinal barrier breakdown (in words) ([7]; 30 μg in 50 μl HPMC intravitreal, 3 days before VEGF challenge): significantly reduced; also recorded: effective at blocking | Inhibition of vitreous fluorescein leakage vs rhVEGF165 plus HPMC vehicle ([7]; 30 μg in 50 μl HPMC intravitreal, 3 days before rhVEGF165 challenge, read 48 h after challenge, p=0.04): 52.7% | Vitreous fluorescein leakage (mean±SD, n=12) ([7]; 30 μg in HPMC intravitreal, 3 days before rhVEGF165 challenge, read 48 h after challenge): 8,458.8±7,067.4 | Vitreous fluorescein leakage (mean±SD, n=12) ([7]; 30 μg in HPMC intravitreal, 5 days before rhVEGF165 challenge): 15,228.2±10,364.6 | Inhibition of vitreous fluorescein leakage vs vehicle ([7]; 30 μg in HPMC intravitreal, 5 days before rhVEGF165 challenge, trend, not statistically significant (p>0.05)): 57.7% | Inhibition of proliferation [8]: inhibited proliferation | EC50 [9]: ~180 nM | Ocular tolerability [10]: no major ocular tolerance concerns | Inhibition of proliferation [11]: inhibited proliferation | Ocular tolerance observations ([12]; 30 μg in 50 μl HPMC intravitreal, except some eyes with blurred vitreous): no observed tolerance concerns | Body weights of the animals ([12]; 30 μg in HPMC, intravitreal): within a normal range | General behavior of animals ([12]; 30 μg in HPMC, intravitreal): not altered | Toxicity by slit-lamp examination, laser flare and IOP measurements ([12]; 30 μg in HPMC, single intravitreal injection): no evidence of toxicity | Overall safety conclusion ([12]; HPMC suspension at 30 μg-dose, normal pigmented rabbits): appeared to be safe | Inhibition of choroid outgrowths [13]: effective in inhibiting choroid outgrowths
